Assay results: ChEMBL document CHEMBL5154749 (Eur J Med Chem, 2022)
Active and inactive are the calls of the source. The rule behind the calls is not given here.

Columns and labels:
LoVo [1] = assay: Inhibition of colony formation in human LoVo cells assessed as inhibition of cell proliferation incubated for 24 hrs followed by culture medium replenishment with drug-free medium for every 72 hrs and measured after 14 days by crystal violet staining method; type: functional, cell-based; conditions: dose 0.03-3 µM, DDE = dose-dependent effect
HT-29 [2] = assay: Induction of apoptosis in human HT-29 cells assessed as viable cells at 1 uM measured after 48 hrs by Annexin V-FITC/Propidium iodide staining based flow cytometry analysis (reference value: 97.01%); type: functional; conditions: read-out: Activity
[3] = Oral bioavailability in Sprague-Dawley rat at 10 mg/kg measured at 0.083 to 24 hrs by LC-MS/MS method; type: ADME, organism-based; conditions: in vivo, time 0.083-24 hrs
LoVo [4] = assay: Induction of apoptosis in human LoVo cells deficient in ATM assessed as late apoptotic cells at 0.3 uM measured after 24 hrs by Annexin V-FITC/Propidium iodide staining based flow cytometry analysis (reference value: 3.32%); type: functional
[5] = Toxicity in NOD/SCID mouse xenografted with human LoVo cells assessed as damage in spleen at 50 to 100 mg/kg, po administered bid for 30 days measured after 2 hrs post last dose by H and E staining method; type: organism-based; conditions: in vivo, 720 h, dose 50-100 mg/kg, time 30 day
HT-29 [6] = assay: Cytotoxicity against ATM proficient human HT-29 cells assessed as reduction in cell viability incubated for 72 hrs by MTT assay; type: functional, cell-based; conditions: dose 0.001-100 µM, DDE = dose-dependent effect
A549 = assay: Antiproliferative activity against ATM proficient human A549 cells assessed as reduction in cell viability incubated for 72 hrs by MTT assay; type: functional, cell-based; conditions: dose 0.001-100 µM, DDE = dose-dependent effect
LoVo [7] = assay: Induction of apoptosis in human LoVo cells deficient in ATM assessed as late apoptotic cells at 1 uM measured after 24 hrs by Annexin V-FITC/Propidium iodide staining based flow cytometry analysis (reference value: 3.32%); type: functional
HT-29 [8] = assay: Induction of apoptosis in human HT-29 cells assessed as necrotic cells at 3 uM measured after 48 hrs by Annexin V-FITC/Propidium iodide staining based flow cytometry analysis (reference value: 0.73%); type: functional
LoVo [9] = assay: Induction of apoptosis in human LoVo cells deficient in ATM assessed as necrotic cells at 3 uM measured after 24 hrs by Annexin V-FITC/Propidium iodide staining based flow cytometry analysis (reference value: 0.84%); type: functional
[10] = Toxicity in NOD/SCID mouse xenografted with human LoVo cells assessed as damage in heart at 50 to 100 mg/kg, po administered bid for 30 days measured after 2 hrs post last dose by H and E staining method; type: organism-based; conditions: in vivo, 720 h, dose 50-100 mg/kg, time 30 day
HT-29 [11] = assay: Induction of apoptosis in human HT-29 cells assessed as late apoptotic cells at 3 uM measured after 48 hrs by Annexin V-FITC/Propidium iodide staining based flow cytometry analysis (reference value: 0.71%); type: functional
LoVo [12] = assay: Induction of apoptosis in human LoVo cells deficient in ATM assessed as viable cells at 1 uM measured after 24 hrs by Annexin V-FITC/Propidium iodide staining based flow cytometry analysis (reference value: 91.64%); type: functional; conditions: read-out: Activity
HCT-116 = assay: Antiproliferative activity against ATM proficient human HCT-116 cells assessed as reduction in cell viability incubated for 72 hrs by MTT assay; type: functional, cell-based; conditions: dose 0.001-100 µM, DDE = dose-dependent effect
LoVo [13] = assay: Antiproliferative activity against ATM-deficient human LoVo cells assessed as reduction in cell viability incubated for 72 hrs by MTT assay; type: functional, cell-based; conditions: dose 0.001-100 µM, DDE = dose-dependent effect
MCF7 = assay: Antiproliferative activity against ATM proficient human MCF7 cells assessed as reduction in cell viability incubated for 72 hrs by MTT assay; type: functional, cell-based; conditions: dose 0.001-100 µM, DDE = dose-dependent effect
[14] = Half life in Sprague-Dawley rat at 5 mg/kg, iv measured at 0.083 to 24 hrs by LC-MS/MS method; type: ADME, organism-based; conditions: in vivo, time 0.083-24 hrs
HT-29 [15] = assay: Induction of apoptosis in human HT-29 cells assessed as early apoptotic cells at 0.3 uM measured after 48 hrs by Annexin V-FITC/Propidium iodide staining based flow cytometry analysis (reference value: 1.55%); type: functional
[16] = target: Serine/threonine-protein kinase ATR (Homo sapiens, UniProt Q13535); assay: Inhibition of ATR signalling in ATM-deficient human LoVo cells assessed as change in expression of ATR at up to 3 uM incubated for 1 hr followed by hydroxyurea addition measured after 4 hrs by Western blot analysis; type: cell-based; conditions: time 5.0 hrs
Sequence of Serine/threonine-protein kinase ATR (Q13535 whole entry, looked up): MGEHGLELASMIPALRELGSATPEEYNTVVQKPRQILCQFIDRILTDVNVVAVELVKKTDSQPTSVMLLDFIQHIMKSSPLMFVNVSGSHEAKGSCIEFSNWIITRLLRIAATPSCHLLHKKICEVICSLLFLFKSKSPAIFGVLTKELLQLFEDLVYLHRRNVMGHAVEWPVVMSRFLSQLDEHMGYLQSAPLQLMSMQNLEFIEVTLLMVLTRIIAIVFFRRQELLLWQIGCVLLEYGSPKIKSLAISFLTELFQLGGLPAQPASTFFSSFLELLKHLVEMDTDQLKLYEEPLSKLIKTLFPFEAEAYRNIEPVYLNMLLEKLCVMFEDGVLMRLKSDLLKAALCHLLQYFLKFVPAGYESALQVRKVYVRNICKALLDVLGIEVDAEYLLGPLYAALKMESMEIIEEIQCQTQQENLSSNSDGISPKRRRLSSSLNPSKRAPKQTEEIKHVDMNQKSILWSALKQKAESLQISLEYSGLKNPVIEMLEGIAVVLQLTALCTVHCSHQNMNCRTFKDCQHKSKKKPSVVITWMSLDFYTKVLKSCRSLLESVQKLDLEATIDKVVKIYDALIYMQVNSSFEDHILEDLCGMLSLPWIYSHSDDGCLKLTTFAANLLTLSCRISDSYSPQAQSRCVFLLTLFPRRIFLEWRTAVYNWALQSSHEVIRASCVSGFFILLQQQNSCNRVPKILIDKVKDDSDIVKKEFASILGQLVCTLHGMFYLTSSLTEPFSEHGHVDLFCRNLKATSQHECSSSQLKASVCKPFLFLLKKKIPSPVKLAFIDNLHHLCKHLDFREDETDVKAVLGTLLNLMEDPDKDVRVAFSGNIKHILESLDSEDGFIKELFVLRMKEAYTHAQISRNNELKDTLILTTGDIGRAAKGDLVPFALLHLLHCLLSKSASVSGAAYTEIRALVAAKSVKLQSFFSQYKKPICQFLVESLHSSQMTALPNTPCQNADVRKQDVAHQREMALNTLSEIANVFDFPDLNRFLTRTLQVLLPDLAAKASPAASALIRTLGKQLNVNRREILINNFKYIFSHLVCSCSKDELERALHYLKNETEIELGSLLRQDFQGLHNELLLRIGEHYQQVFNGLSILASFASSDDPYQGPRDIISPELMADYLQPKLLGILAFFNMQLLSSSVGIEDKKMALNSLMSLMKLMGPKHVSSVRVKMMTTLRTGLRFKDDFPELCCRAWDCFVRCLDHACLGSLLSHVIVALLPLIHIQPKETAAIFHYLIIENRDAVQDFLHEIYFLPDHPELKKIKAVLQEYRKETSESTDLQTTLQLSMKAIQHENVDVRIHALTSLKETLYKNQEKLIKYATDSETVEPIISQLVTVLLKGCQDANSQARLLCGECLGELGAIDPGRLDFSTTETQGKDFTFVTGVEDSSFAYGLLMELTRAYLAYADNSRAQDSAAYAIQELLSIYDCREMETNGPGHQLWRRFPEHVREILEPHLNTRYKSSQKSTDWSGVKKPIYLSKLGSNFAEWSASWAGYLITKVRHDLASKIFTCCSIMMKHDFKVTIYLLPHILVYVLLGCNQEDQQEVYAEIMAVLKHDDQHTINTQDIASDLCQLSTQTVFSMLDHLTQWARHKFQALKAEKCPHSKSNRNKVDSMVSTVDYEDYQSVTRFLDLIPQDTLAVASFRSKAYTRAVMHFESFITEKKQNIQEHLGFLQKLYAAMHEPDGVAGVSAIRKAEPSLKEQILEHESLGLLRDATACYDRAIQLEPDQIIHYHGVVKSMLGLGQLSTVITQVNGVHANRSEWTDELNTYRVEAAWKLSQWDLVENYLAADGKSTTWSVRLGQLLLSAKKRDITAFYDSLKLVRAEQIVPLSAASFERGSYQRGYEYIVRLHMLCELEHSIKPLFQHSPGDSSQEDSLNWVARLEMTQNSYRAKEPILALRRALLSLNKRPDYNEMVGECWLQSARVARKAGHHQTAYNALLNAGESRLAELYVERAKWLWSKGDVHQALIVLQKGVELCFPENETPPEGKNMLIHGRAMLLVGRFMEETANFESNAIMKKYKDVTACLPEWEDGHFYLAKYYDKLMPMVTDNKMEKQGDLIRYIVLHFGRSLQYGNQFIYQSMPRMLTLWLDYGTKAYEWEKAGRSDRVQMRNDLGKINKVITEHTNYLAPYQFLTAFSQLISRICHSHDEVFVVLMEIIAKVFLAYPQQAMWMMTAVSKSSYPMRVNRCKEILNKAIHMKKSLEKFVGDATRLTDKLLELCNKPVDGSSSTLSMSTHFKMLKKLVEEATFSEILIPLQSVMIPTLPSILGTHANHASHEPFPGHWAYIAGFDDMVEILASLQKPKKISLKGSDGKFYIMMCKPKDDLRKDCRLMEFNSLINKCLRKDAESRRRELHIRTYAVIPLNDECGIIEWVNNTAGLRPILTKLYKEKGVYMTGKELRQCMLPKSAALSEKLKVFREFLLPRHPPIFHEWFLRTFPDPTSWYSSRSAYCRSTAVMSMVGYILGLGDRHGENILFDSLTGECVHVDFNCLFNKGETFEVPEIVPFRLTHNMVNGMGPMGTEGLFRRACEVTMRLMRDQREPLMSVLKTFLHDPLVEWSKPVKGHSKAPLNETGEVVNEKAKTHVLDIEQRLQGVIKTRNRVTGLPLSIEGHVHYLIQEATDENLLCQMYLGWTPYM

LoVo [17] = assay: Induction of apoptosis in human LoVo cells deficient in ATM assessed as necrotic cells at 0.3 uM measured after 24 hrs by Annexin V-FITC/Propidium iodide staining based flow cytometry analysis (reference value: 0.84%); type: functional
HT-29 [18] = assay: Induction of DNA damage in human HT-29 cells proficient in ATM at 1 uM measured after 3 days in presence of AZD1390 by immunofluorescence assay; type: functional, cell-based; conditions: time 3.0 day
[19] = Toxicity in NOD/SCID mouse xenografted with human LoVo cells assessed as body weight loss at 50 to 100 mg/kg, po administered bid for 30 days; type: organism-based; conditions: in vivo, 720 h, dose 50-100 mg/kg, time 30 day
HT-29 [20] = assay: Induction of apoptosis in human HT-29 cells assessed as necrotic cells at 0.3 uM measured after 48 hrs by Annexin V-FITC/Propidium iodide staining based flow cytometry analysis (reference value: 0.73%); type: functional
HT-29 [21] = assay: Induction of apoptosis in human HT-29 cells assessed as late apoptotic cells at 3 uM measured after 48 hrs in presence of AZD1390 by Annexin V-FITC/Propidium iodide staining based flow cytometry analysis (reference value: 0.63%); type: functional
[22] = Half life in Sprague-Dawley rat at 10 mg/kg, po measured at 0.083 to 24 hrs by LC-MS/MS method; type: ADME, organism-based; conditions: in vivo, time 0.083-24 hrs
[23] = Toxicity in NOD/SCID mouse xenografted with human LoVo cells assessed as damage in lung at 50 to 100 mg/kg, po administered bid for 30 days measured after 2 hrs post last dose by H and E staining method; type: organism-based; conditions: in vivo, 720 h, dose 50-100 mg/kg, time 30 day
LoVo [24] = assay: Induction of apoptosis in human LoVo cells deficient in ATM assessed as early apoptotic cells at 0.3 uM measured after 24 hrs by Annexin V-FITC/Propidium iodide staining based flow cytometric analysis (reference value: 4.20%); type: functional
HT-29 [25] = assay: Induction of apoptosis in human HT-29 cells assessed as early apoptotic cells at 3 uM measured after 48 hrs by Annexin V-FITC/Propidium iodide staining based flow cytometry analysis (reference value: 1.55%); type: functional
[26] = AUC (0 to infinity) in Sprague-Dawley rat at 5 mg/kg, iv measured at 0.083 to 24 hrs by LC-MS/MS method; type: ADME, organism-based; set-up: dose 5 mg/kg, time upper 24 hrs, time lower 0.083 hrs, route iv; conditions: in vivo
HT-29 [27] = assay: Induction of apoptosis in human HT-29 cells assessed as necrotic cells at 1 uM measured after 48 hrs in presence of AZD1390 by Annexin V-FITC/Propidium iodide staining based flow cytometry analysis (reference value: 0.23%); type: functional
[28] = Tmax in Sprague-Dawley rat at 10 mg/kg, po measured at 0.083 to 24 hrs by LC-MS/MS method; type: ADME, organism-based; conditions: in vivo, time 0.083-24 hrs
LoVo [29] = assay: Induction of apoptosis in human LoVo cells deficient in ATM assessed as late apoptotic cells at 3 uM measured after 24 hrs by Annexin V-FITC/Propidium iodide staining based flow cytometry analysis (reference value: 3.32%); type: functional

SMILES: C[C@@H]1COCCN1c1nc(-c2cccc3[nH]ccc23)nc2ccc(-c3ccnn3C)cc12
- inhibition (LoVo [1]): Dde
- viability at 1 µM (HT-29 [2]): 94.7%
- bioavailability [3]: 43.1%
- Activity (LoVo [4]): 17.38%
- Activity [5]: Non-Toxic
- Activity (HT-29 [6]): Dde
- Activity (A549): Dde
- Activity (LoVo [7]): 20.93%
- Activity (HT-29 [8]): 1.71%
- Activity (LoVo [9]): 3.01%
- Activity [10]: Non-Toxic
- Activity (HT-29 [11]): 2.52%
- viability at 1 µM (LoVo [12]): 47.8%
- Activity (HCT-116): Dde
- Activity (LoVo [13]): Dde
- Activity (MCF7): Dde
- half-life [14]: 1.37 h
- Activity (HT-29 [15]): 1.47%
- inhibition [16]: Active
- Activity (LoVo [17]): 2.71%
- Activity (HT-29 [18]): Active
- Activity [19]: Non-Toxic
- Activity (HT-29 [20]): 1.65%
- Activity (HT-29 [21]): 20.78%
- half-life [22]: 1.14 h
- Activity [23]: Non-Toxic
- Activity (LoVo [24]): 24.04%
- Activity (HT-29 [25]): 2.64%
- AUC(0-inf) [26]: 3150 ng·h/mL
- Activity (HT-29 [27]): 2.1%
- Tmax [28]: 1.67 h
- Activity (LoVo [29]): 28.73%
